The source of these data is patent US10633408B2, “Nucleoside-lipid compounds with pH-sensitive dialkylorthoester chains and their use for transportation or vectorization of at least one therapeutic agent” (UNIVERSITE DE BORDEAUX, priority 2015, dated 2020).

Molecules are shown by their SMILES.

The nature of data set [1]: DLS of nucleolipid/DOPE liposomes and siRNA complexes. The note with it: for size of siRNA complexes with siRNA RECQL4 / size of siRNA complexes with siRNA luciferase: 10 pmol siRNA + 2 nmol nucleolipid/DOPE, serum-free medium; for diameter of liposomes: nucleolipid/DOPE liposomes in water. It is filed as physicochemical. As to the method:
(§1) Compound 6 and DOPE were mixed with molar ratio and dissolved in methylene chloride. The solvent was evaporated with nitrogen flow while stirring to prepare lipids films. This preparation was rehydrated with 1 mL of water, them submitted to Vortex, and the tube was put in ultrasonic bath (37 kHz) during 15-20 min at 15° C. The same experiment was carried out with DOTAU/DOPE (1:1) Liposomes were analysed by DLS (Malvern, Zetasizer) and measured 74 nm of diameters for orthoester and 48 nm for DOTAU. 10 pmol of siRNA were added to 2 nmol of orthoester/DOPE in 100 μL of PRMI 1640 serum-free medium. After submitting to Vortex, this solution was incubated 20 min at RT and transferred in wells. The siRNA orthoester/DOPE complexes were analysed by DLS and measured at 90 nm with siRNA luciferase and at 100 nm with siRNA RECQL4 for orthoester (69 nm and 63 nm, respectively for DOTAU).

Data set [2] relates to RECQL4. In words: Inhibition of RECQL4 by siRNA transfection, qPCR normalized with GAPDH. It is filed as cell-based, human. The note with it: MDA-MB-134 breast cancer cells, 72 h, nucleolipid/DOPE complexes, N/P 1/5 and 1/10. As to the method: as §1, with “RECQL4 is a human RecQ helicase implicated in three syndromes (Rothmund-Thompson, […] and Baller-Gerold) displaying accelerating aging, developmental abnormalities and cancer's predisposition. […] In this example, the efficacy of compound 6 prepared in example 2 in the transfection of siRNA targeting RECQL4 is evaluated. Compound” for “Compound”, “(1:1)” for “(1:1) Liposomes were analysed by DLS (Malvern, Zetasizer) and measured 74 nm of diameters for orthoester and 48 nm for DOTAU.”, “DOTAU). 2.10^5 MDA-MB-134 cells by well were added in 500 μL final volume. […] RNA was converted in cDNA by Reverse Transcription with QuantiTect kit (Qiagen). Then, a quantitative PCR was performed with 25 ng of cDNA, the master mix GoTaq qPCR (Promega) and specific primers (1 μM). […]” for “DOTAU).”
In general terms: Real-time PCR tracks product formation cycle by cycle.

The nature of data set [3]: 1H NMR kinetic study of orthoester hydrolysis. It counts as physicochemical. The note with it: for rate of hydrolysis of the orthoester function, effect of pH: MeOD:phosphate buffer (1:2), pH 5 vs 7.4, 37° C. As to the method:
1HNMR experiments were performed to study the kinetics of hydrolysis for both anionic and cationic compounds of formula (I) at pH 5 and 7.4 by measuring the percentage of hydrolyzed compound versus time.
10 mg of cationic compound (6) prepared in example 2 or anionic compound (11) prepared in example 6 were dissolved in a mixture of MeOD:Buffer phosphate (1:2) (pH 5 or 7.4), mixed and placed in a NMR tube. ^1H NMR Experiment was performed at 37° C. at 300 MHz on a BRUKER® Avance DPX-300.
After hydrolysis of the orthoester function, the chemical shifts of the thymidine CH3 protons are shifted upfield and downfield for compound 6 and 11, respectively. Thus, the percentage of hydrolysis versus time was followed by integrating the signals of the CH3 protons.

A short description of data set [4]: Small-angle X-ray scattering (SAXS) of compound 6/DOPC. It is filed as physicochemical. The note with it: with DOPC (mol ratio 50/50), incubation at pH=5 and 37° C. As to the method:
[…] SAXS experiments were carried out at the Centre de Recherche Paul Pascal, Pessac, France on a NanoStar (Bruker). With a sample to detector distance equal to 650 mm and a radiation wavelength of A=0.154 nm, the scattering wave vectors in reciprocal space ranged from q=0.16 nm^−1 and 3.4 nm^−1.
The beam size at the sample position was 0.45 mm (0). Images were captured by the HiStar (Bruker).
The array of detection totalizes 1024×1024 pixels, each one with 100 μm for side. Data were radially averaged and corrected for background scattering by using the software SAXS-Bruker. All experiments were carried out on thermally equilibrated samples at 25° C., which was obtained by keeping the sample holders under water circulation at controlled temperature.

Data set [5] is described as follows: Liposome characterization by dynamic light scattering and zeta potential. It is filed as physicochemical. The note with it: liposomes of the compound alone, 1 mg/mL in Milli-Q water; for Pdi (polydispersity) of liposomes / d (diameter) of liposomes: DLS. As to the method:
Zeta potential measurements and Dynamic light scattering (DLS) measurements of liposomes were performed with a MalvernNanoZS device.
100 μL of stock solutions of anionic or cationic compounds of formula (I) prepared in examples 2 and 6 (10 mg/mL in dichloromethane) were placed in glass tubes, dried under dry N2 and then desiccated under vacuum. Milli-Q Water was added to the dried lipid to obtain liposomes dispersions (1 mg/mL) after vortex agitation and sonication for 10 min.
The size distribution by intensity measured by dynamic light scattering (DLS) of liposomes prepared from compound 11 prepared in example 6 (anionic compounds of formula (I)) is shown on FIG. 3A, and of liposomes prepared from compound 6 prepared in example 2 (cationic compound of formula (I)) is shown on FIG. 3B.

As for `CCCCCCCCCCCCCCCCOC(OCCCCCCCCCCCCCCCC)O[C@H]1C[C@H](n2cc(C)c(=O)[nH]c2=O)O[C@@H]1C[N+](C)(C)C.CS(=O)(=O)[O-]` [Compound 6, 1-((2R,3S,5R)-3-(bis(hexadecyloxy)methoxy)-5-(5-methyl-2,4-dioxo-3,4-dihydropyrimidin-1 (2H)-yl)tetrahydrofuran-2-yl)-N,N,N-trimethyl-methanaminium methanesulfonate], in data set [1], the “size of siRNA complexes with siRNA RECQL4” value is recorded as 100 nm, the “size of siRNA complexes with siRNA luciferase” value came to 90 nm and the diameter of liposomes was determined as 74 nm. Also, the “expression of RECQL4 after siRNA transfection” value in data set [2] is given as “able to inhibit the expression of RECQL4”. The “rate of hydrolysis of the orthoester function, effect of pH” value in data set [3] is recorded as “higher rates of hydrolysis at pH=5”. In addition, the “SAXS profile before and after incubation” value in data set [4] is “evolves from vesicular to multilamellar systems”. For the same compound, in data set [5], the “ζ (zeta potential) of liposomes” value worked out at 51.4 mV, the “Pdi (polydispersity) of liposomes” value was 0.221 and the “d (diameter) of liposomes” value is recorded as 135.9 nm.
On to `CCCCCCCCCCCCCCCCOC(OCCCCCCCCCCCCCCCC)O[C@H]1C[C@H](n2cc(C)c(=O)[nH]c2=O)O[C@@H]1COP(=O)(O)OC` [Compound 11, ((2R,3S,5R)-3-(bis(hexadecyloxy)methoxy)-5-(5-methyl-2,4-dioxo-3,4-dihydropyrimidin-1(2H)-yl)tetrahydrofuran-2-yl)methyl methyl phosphate], for which the “rate of hydrolysis of the orthoester function, effect of pH” value in data set [3] was “higher rates of hydrolysis at pH=5”. Also, in data set [3] (at both pH 5 and 7, 37° C.), the “rate of hydrolysis relative to cationic compound 6” value was “increased hydrolysis rates”. In addition, in data set [5], the “ζ (zeta potential) of liposomes” value is reported as −43.3 mV, the “Pdi (polydispersity) of liposomes” value came to 0.163 and the “d (diameter) of liposomes” value is 100.4 nm.
Take `CCCCCCCC/C=C\CCCCCCCC(=O)OC1C(C[N+](C)(C)C)OC(n2ccc(=O)[nH]c2=O)C1OC(=O)CCCCCCC/C=C\CCCCCCCC.Cc1ccc(S(=O)(=O)[O-])cc1` (stereo not drawn) [DOTAU, N-[5′-(2′,3′-dioleoyl)uridine]-N′,N′,N′-trimethylammonium tosylate, reference compound]: in data set [1], the “size of siRNA complexes with siRNA RECQL4” value came out at 63 nm, the “size of siRNA complexes with siRNA luciferase” value is on record as 69 nm and the diameter of liposomes came to 48 nm. In addition, the “expression of RECQL4 after siRNA transfection” value in data set [2] was “not able to transfect the siRNA targeting RECQL4”.
